This is an account of results in ChEMBL document CHEMBL1122581, “Antiviral activity of C-5 substituted tubercidin analogues” (1984).

≈ marks a conversion by molar mass, not a printed value.

The first assay concerns Vaccinia virus. In words: Compound was tested for the concentration required to reduce vaccinia virus induced cytopathogenicity by 50% in primary rabbit kidney cell cultures. The format is functional. To be noted: Orthopoxvirus vaccinia. On the technique in general: Damage to the host cells serves as the signal in cytopathic effect assays.
With `Nc1ncnc2c1ncn2C[C@@H](O)CO`, the MIC is 70 µg/mL (≈ 335 µM).

A further assay has as its system Vaccinia virus. In words: Concentration required to reduce vaccinia virus induced cytopathogenicity by 50% in primary rabbit kidney cell cultures. The class given is functional. To be noted: Orthopoxvirus vaccinia.
`Nc1ncnc2c1cc(Br)n2C1O[C@H](CO)[C@@H](O)[C@H]1O` (some centres undefined) returned an MIC of 300 µg/mL (≈ 869 µM). The same measure, in the same setting: as for `Nc1ncnc2c1c(Br)c(Br)n2C1O[C@H](CO)[C@@H](O)[C@H]1O` (some centres undefined), the figure is 20 µg/mL (≈ 47.2 µM).

`Nc1ncnc2c1c(CCCO)cn2C1O[C@H](CO)[C@@H](O)[C@H]1O` (some centres undefined): the MIC came to 2 µg/mL (≈ 6.17 µM). Same read-out and setting: as for `Nc1ncnc2c1c(/C=C/Br)cn2C1O[C@H](CO)[C@@H](O)[C@H]1O` (some centres undefined), the figure is above 1 µg/mL; as for `Nc1ncnc2c1c(Cl)c(Cl)n2C1O[C@H](CO)[C@@H](O)[C@H]1O` (some centres undefined), above 40 µg/mL. Same read-out and setting: the result for `N#C/C=C/c1cn(C2O[C@H](CO)[C@@H](O)[C@H]2O)c2ncnc(N)c12` (some centres undefined) reads 0.7 µg/mL (≈ 2.21 µM); that for `CC(O)c1cn(C2O[C@H](CO)[C@@H](O)[C@H]2O)c2ncnc(N)c12` (some centres undefined), 0.7 µg/mL (≈ 2.26 µM). In turn, `COC(C)c1cn(C2O[C@H](CO)[C@@H](O)[C@H]2O)c2ncnc(N)c12` (some centres undefined) had an MIC of 0.7 µg/mL (≈ 2.16 µM). `C/C=C/Cc1cn(C2O[C@H](CO)[C@@H](O)[C@H]2O)c2ncnc(N)c12` (some centres undefined) yielded an MIC of 0.7 µg/mL (≈ 2.19 µM). As for `CCCCc1cn(C2O[C@H](CO)[C@@H](O)[C@H]2O)c2ncnc(N)c12` (some centres undefined), the MIC is above 40 µg/mL.

As to `Nc1ncnc2c1c(Br)cn2[C@@H]1O[C@H](CO)[C@@H](O)[C@H]1O`, the MIC stood at 0.2 µg/mL (≈ 0.579 µM). The same measure, in the same setting: as for `Nc1nccc2c1ncn2[C@@H]1C[C@H](CO)[C@H](O)C1O` (some centres undefined), the figure is 0.1 µg/mL (≈ 0.378 µM); as for `Nc1ncnc2c1c(Cl)cn2[C@@H]1O[C@H](CO)[C@@H](O)[C@H]1O`, above 1 µg/mL; as for `Nc1ncnc2c1c(I)cn2[C@@H]1O[C@H](CO)[C@@H](O)[C@H]1O` [IODOTUBERCIDIN], 0.07 µg/mL (≈ 0.179 µM).

Compound `NC(=O)c1ncn([C@@H]2O[C@H](CO)[C@@H](O)[C@H]2O)n1` [RIBAVIRIN] yielded an MIC of 10 µg/mL (≈ 40.9 µM). The compound `NC(=O)c1cn([C@@H]2O[C@H](CO)[C@@H](O)[C@H]2O)c2ncnc(N)c12` [SANGIVAMYCIN] displayed an MIC of 0.02 µg/mL (≈ 0.0647 µM). On the same count and under the same terms, as for `N#Cc1cn([C@@H]2O[C@H](CO)[C@@H](O)[C@H]2O)c2ncnc(N)c12` [TOYOCAMYCIN], the figure is above 0.01 µg/mL; as for `Nc1ncnc2c1ccn2[C@@H]1O[C@H](CO)[C@@H](O)[C@H]1O` [TUBERCIDIN], 0.02 µg/mL (≈ 0.0751 µM).
